Measured values: US10065973B2, “Substituted aminothiazolopyrimidinedione for the treatment and prophylaxis of virus infection” (Hoffmann-La Roche Inc., priority 2016, dated 2018)

What follows are compounds tested against human TLR7 (Homo sapiens (Human), UniProt Q9NYK1) (assay: HEK293-Blue-hTLR-7 cells assay (SEAP reporter)). Conditions: 20 hours incubation.
Sequence of human TLR7 (Q9NYK1 27-1049): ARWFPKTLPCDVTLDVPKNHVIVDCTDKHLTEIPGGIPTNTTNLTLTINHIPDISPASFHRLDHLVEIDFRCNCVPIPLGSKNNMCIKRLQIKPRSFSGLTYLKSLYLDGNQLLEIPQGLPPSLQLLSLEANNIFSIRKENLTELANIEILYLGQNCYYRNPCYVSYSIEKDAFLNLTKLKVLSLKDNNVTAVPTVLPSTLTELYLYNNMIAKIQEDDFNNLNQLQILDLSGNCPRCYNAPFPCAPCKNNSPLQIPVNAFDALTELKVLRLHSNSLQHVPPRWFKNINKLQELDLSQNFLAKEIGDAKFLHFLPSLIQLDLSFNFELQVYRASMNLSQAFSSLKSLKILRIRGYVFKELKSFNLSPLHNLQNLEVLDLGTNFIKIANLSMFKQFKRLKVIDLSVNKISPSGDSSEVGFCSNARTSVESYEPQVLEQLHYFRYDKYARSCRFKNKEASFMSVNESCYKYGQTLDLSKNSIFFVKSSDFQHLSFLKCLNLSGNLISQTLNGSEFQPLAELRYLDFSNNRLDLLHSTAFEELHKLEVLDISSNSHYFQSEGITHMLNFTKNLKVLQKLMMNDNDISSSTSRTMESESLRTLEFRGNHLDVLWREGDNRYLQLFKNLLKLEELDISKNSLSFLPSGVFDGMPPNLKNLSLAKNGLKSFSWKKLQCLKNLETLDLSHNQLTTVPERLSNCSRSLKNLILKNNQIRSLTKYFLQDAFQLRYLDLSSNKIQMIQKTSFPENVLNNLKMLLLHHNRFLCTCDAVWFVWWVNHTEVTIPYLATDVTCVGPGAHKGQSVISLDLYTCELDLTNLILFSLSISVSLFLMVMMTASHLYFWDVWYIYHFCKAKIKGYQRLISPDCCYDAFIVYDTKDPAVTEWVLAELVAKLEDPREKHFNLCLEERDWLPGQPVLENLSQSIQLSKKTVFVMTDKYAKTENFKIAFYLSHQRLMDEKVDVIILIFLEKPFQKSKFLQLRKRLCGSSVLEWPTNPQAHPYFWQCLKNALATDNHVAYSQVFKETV
Format: cell-based
From the text: HEK293-Blue-hTLR-7 Cells Assay: A stable HEK293-Blue-hTLR-7 cell line was purchased from InvivoGen (Cat.#: hkb-htlr7, San Diego, Calif., USA). These cells were designed for studying the stimulation of human TLR7 by monitoring the activation of NF-κB. A SEAP (secreted embryonic alkaline phosphatase) reporter gene was placed under the control of the IFN-β minimal promoter fused to five NF-κB and AP-1-binding sites. The SEAP was induced by activating NF-κB and AP-1 via stimulating HEK-Blue hTLR7 cells with TLR7 ligands. Therefore the reporter expression was regulated by the NF-κB promoter upon stimulation of human TLR7. The cell culture supernatant SEAP reporter activity was determined using QUANTI-Blue™ kit (Cat.#: rep-qb1, Invivogen, San Diego, Ca, USA) at a wavelength of 640 nm, a detection medium that turns purple to blue in the presence of alkaline phosphatase. HEK293-Blue-hTLR7 cells were incubated at a density of 250,000˜450,000 cells/mL in a volume of 180 μL in a 96-well plate in Dulbecco's Modified Eagle's medium (DMEM) containing 4.5 g/l glucose, 50 U/ml penicillin, […] streptomycin, […] Normocin, 2 mM L-glutamine, 10% (v/v) heat-inactivated fetal bovine serum for 24 h. Then the HEK293-Blue-hTLR-7 cells were incubated with addition of 20 μL test compound in a serial dilution in the presence of final DMSO at 1% and perform incubation under 37° C. in a CO2 incubator for 20 hours. Then 20 μL of the supernatant from each well was incubated with 180 μL Quanti-blue substrate solution at 37° C. for 1-3 hours and the absorbance was read at 620˜655 nm using a spectrophotometer.
Work on CC(O)[C@@H]1C[C@@H](CO)O[C@H]1n1c(=O)sc2c(=O)[nH]c(N)nc21 (single isomer, unassigned) [Example 1-B] yielded an EC50 of 39 µM.
Nc1nc2c(sc(=O)n2[C@@H]2O[C@H](CO)C[C@H]2C(O)C2CC2)c(=O)[nH]1 (single isomer, unassigned) [Example 2-A] showed an EC50 of 156 µM.
For CCC(O)[C@@H]1C[C@@H](CO)O[C@H]1n1c(=O)sc2c(=O)[nH]c(N)nc21 (single isomer, unassigned) [Example 3-A], the EC50 was 111 µM.
In the case of Nc1nc2c(sc(=O)n2[C@@H]2O[C@H](CO)C[C@H]2C(O)c2ccccc2)c(=O)[nH]1 (single isomer, unassigned) [Example 4-A], the EC50 is reported as 205 µM.
For COc1ccccc1C(O)[C@@H]1C[C@@H](CO)O[C@H]1n1c(=O)sc2c(=O)[nH]c(N)nc21 (single isomer, unassigned) [Example 5-A], the EC50 was 111 µM.
Nc1nc2c(sc(=O)n2[C@@H]2O[C@H](CO)C[C@H]2C(O)c2ccccc2Cl)c(=O)[nH]1 (single isomer, unassigned) [Example 6-A] was tested, and the EC50 was 79 µM.
CC[C@H](O)[C@@H]1C[C@@H]([C@H](O)c2ccccc2)[C@H](n2c(=O)sc3c(=O)[nH]c(N)nc32)O1 (single isomer, unassigned) [Example 18-A] gave an EC50 of 10.4 µM.
CC[C@H](O)[C@@H]1C[C@@H]([C@H](O)c2ccccc2)[C@H](n2c(=O)sc3c(=O)[nH]c(N)nc32)O1 (single isomer, unassigned) [Example 18-B] was tested, and the EC50 was 9.7 µM.
For Nc1nc2c(sc(=O)n2[C@@H]2O[C@H](CO)C[C@H]2[C@H](O)c2ccccn2)c(=O)[nH]1 [Example 7, 5-Amino-3-[(2R,3S,5S)-5-(hydroxymethyl)-3-[(S)-hydroxy(2-pyridyl)methyl]tetrahydrofuran-2-yl]-6H-thiazolo[4,5-d]pyrimidine-2,7-dione], the EC50 was 225 µM.
Work on CC(C)(O)[C@@H]1C[C@@H](CO)O[C@H]1n1c(=O)sc2c(=O)[nH]c(N)nc21 [Example 8, 5-Amino-3-[(2R,3S,5S)-5-(hydroxymethyl)-3-(1-hydroxy-1-methyl-ethyl)tetrahydrofuran-2-yl]-6H-thiazolo[4,5-d]pyrimidine-2,7-dione] yielded an EC50 of 23 µM.
With CC[C@H](O)[C@@H]1C[C@@H]([C@@H](C)OC(C)=O)[C@H](n2c(=O)sc3c(=O)[nH]c(N)nc32)O1 [Example 9-A, [(1R)-1-[(2R,3S,5S)-2-(5-Amino-2,7-dioxo-6H-thiazolo[4,5-d]pyrimidin-3-yl)-5-[(1S)-1-hydroxypropyl]tetrahydrofuran-3-yl]ethyl] acetate] the EC50 was 8.4 µM.
For CC[C@H](O)[C@@H]1C[C@@H]([C@H](C)OC(C)=O)[C@H](n2c(=O)sc3c(=O)[nH]c(N)nc32)O1 [Example 9-B, [(1S)-1-[(2R,3S,5S)-2-(5-amino-2,7-dioxo-6H-thiazolo[4,5-d]pyrimidin-3-yl)-5-[(1S)-1-hydroxypropyl]tetrahydrofuran-3-yl]ethyl] acetate], the EC50 was 9.3 µM.
In the case of CC[C@H](O)[C@@H]1C[C@@H]([C@@H](C)O)[C@H](n2c(=O)sc3c(=O)[nH]c(N)nc32)O1 [Example 10-A, 5-Amino-3-[(2R,3S,5S)-3-[(1R)-1-hydroxyethyl]-5-[(1S)-1-hydroxypropyl]tetrahydrofuran-2-yl]-6H-thiazolo[4,5-d]pyrimidine-2,7-dione], the EC50 is reported as 2.7 µM.
With CC[C@H](O)[C@@H]1C[C@@H]([C@H](C)O)[C@H](n2c(=O)sc3c(=O)[nH]c(N)nc32)O1 [Example 10-B, 5-amino-3-[(2R,3S,5S)-3-[(1S)-1-hydroxyethyl]-5-[(1S)-1-hydroxypropyl]tetrahydrofuran-2-yl]-6H-thiazolo[4,5-d]pyrimidine-2,7-dione] the EC50 was 35 µM.
In the case of CCOC(=O)O[C@H](C)[C@@H]1C[C@@H]([C@@H](O)CC)O[C@H]1n1c(=O)sc2c(=O)[nH]c(N)nc21 [Example 11, [(1R)-1-[(2R,3S,5S)-2-(5-Amino-2,7-dioxo-6H-thiazolo[4,5-d]pyrimidin-3-yl)-5-[(1S)-1-hydroxypropyl]tetrahydrofuran-3-yl]ethyl] ethyl carbonate], the EC50 is reported as 26 µM.
Compound CC[C@H](O)[C@@H]1C[C@@H]([C@@H](C)OC(=O)c2ccccc2)[C@H](n2c(=O)sc3c(=O)[nH]c(N)nc32)O1 [Example 12, [(1R)-1-[(2R,3S,5S)-2-(5-Amino-2,7-dioxo-6H-thiazolo[4,5-d]pyrimidin-3-yl)-5-[(1S)-1-hydroxypropyl]tetrahydrofuran-3-yl]ethyl] benzoate] has an EC50 of 6.5 µM.
For CC[C@H](O)[C@@H]1C[C@@H]([C@@H](C)OC)[C@H](n2c(=O)sc3c(=O)[nH]c(N)nc32)O1 [Example 13, 5-Amino-3-[(2R,3S,5S)-5-[(1S)-1-hydroxypropyl]-3-[(1R)-1-methoxyethyl]tetrahydrofuran-2-yl]-6H-thiazolo[4,5-d]pyrimidine-2,7-dione], the EC50 was 36 µM.
CC[C@H](O)[C@@H]1C[C@@H]([C@@H](C)OCc2ccccc2)[C@H](n2c(=O)sc3c(=O)[nH]c(N)nc32)O1 [Example 14, 5-Amino-3-[(2R,3S,5S)-3-[(1R)-1-benzyloxyethyl]-5-[(1S)-1-hydroxypropyl]tetrahydrofuran-2-yl]-6H-thiazolo[4,5-d]pyrimidine-2,7-dione] showed an EC50 of 60 µM.
For C=CCO[C@H](C)[C@@H]1C[C@@H]([C@@H](O)CC)O[C@H]1n1c(=O)sc2c(=O)[nH]c(N)nc21 [Example 15, 3-[(2R,3S,5S)-3-[(1R)-1-Allyloxyethyl]-5-[(1S)-1-hydroxypropyl]tetrahydrofuran-2-yl]-5-amino-6H-thiazolo[4,5-d]pyrimidine-2,7-dione], the EC50 was 68 µM.
In the case of CC[C@H](O)[C@@H]1C[C@@H]([C@H](C)OC)[C@H](n2c(=O)sc3c(=O)[nH]c(N)nc32)O1 [Example 16, 5-Amino-3-[(2R,3S,5S)-5-[(1S)-1-hydroxypropyl]-3-[(1S)-1-methoxyethyl]tetrahydrofuran-2-yl]-6H-thiazolo[4,5-d]pyrimidine-2,7-dione], the EC50 is reported as 35 µM.
CC[C@H](OC(C)=O)[C@@H]1C[C@@H]([C@@H](C)O)[C@H](n2c(=O)sc3c(=O)[nH]c(N)nc32)O1 [Example 17, [(1S)-1-[(2S,4S,5R)-5-(5-Amino-2,7-dioxo-6H-thiazolo[4,5-d]pyrimidin-3-yl)-4-[(1R)-1-hydroxyethyl]tetrahydrofuran-2-yl]propyl] acetate] gave an EC50 of 15 µM.
CC[C@H](O)[C@@H]1C[C@@H](C(C)(C)OC(C)=O)[C@H](n2c(=O)sc3c(=O)[nH]c(N)nc32)O1 [Example 19, [1-[(2R,3S,5S)-2-(5-Amino-2,7-dioxo-6H-thiazolo[4,5-d]pyrimidin-3-yl)-5-[(1S)-1-hydroxypropyl]tetrahydrofuran-3-yl]-1-methyl-ethyl] acetate] showed an EC50 of 19 µM.
CC[C@H](O)[C@@H]1C[C@@H](C(C)(C)O)[C@H](n2c(=O)sc3c(=O)[nH]c(N)nc32)O1 [Example 20, 5-Amino-3-[(2R,3S,5S)-3-(1-hydroxy-1-methyl-ethyl)-5-[(1S)-1-hydroxypropyl]tetrahydrofuran-2-yl]-6H-thiazolo[4,5-d]pyrimidine-2,7-dione] gave an EC50 of 3 µM.
